Experimental data from patent US7122173B2, “Agent for the treatment of bladder irritative symptoms accompanied by benign prostatic hyperplasia” (Kyowa Hakko Kogyo Co., Ltd., priority 2001, dated 2006).

Experiments:
[1] = system: delayed rectifier K^+ channel; test: Voltage clamp, delayed rectifier K+ currents in Fast Blue-labeled capsaicin-sensitive bladder afferent neurons; assay type: cell-based, rat; conditions: Compound 1 1.0 × 10^−6 mol/L
Description: Experiments were performed on adult female Sprague Dawley rats. First and second series of the experiments were performed, respectively, in unidentified DRG neurons and a specific population of DRG neurons innervating the urinary bladder. The population of DRG neurons that innervate the urinary bladder were labeled by retrograde axonal transport of the fluorescent dye, Fast Blue (4% w/v) (Polyloy, Gross Umstadt, Germany), injected into the wall of the bladder in halothane-anesthetized animals 7 days before the dissociation. The dye was injected with a 28 gauge needle at three to six sites on the dorsal surface of the organ (5–6 μL per site, total volume of 20–30 μL). Each injection site was washed with saline to minimize contamination of adjacent organs with the dye.
Freshly dissociated neurons from DRG were prepared from halothane-anesthetized animals. […]
Dye-labeled primary afferent neurons that innervate the urinary bladder were identified using an inverted phase-contrast microscope (Nikon, Tokyo, Japan) with fluorescent attachments (UV-1A filter; excitation wavelength, 365 nm). […] All recordings were made with an Axopatch-1D patch-clamp amplifier (Axon Instruments, Foster City, Calif.), and data were acquired and analyzed by PCLAMP software (Axon Instruments).
In voltage-clamp recordings, outward K^+ currents and inward Na^+ currents were measured. […]

[2] = system: rats with partial urethra obstruction; test: Increased urinary frequency accompanied by partial bladder outlet obstruction (metabolism cage urination test); assay type: in vivo, rat
Description: The test was carried out in accordance with the method of Saito et al. (J. Urol., 150: 1045–1051 (1993)). Male SD rats of 8 to 9 weeks of age (supplied by Japan SLC) were used in the test. Five to seven animals of these rats were put in each metal cage and reared by allowing them to freely take commercially available chow and water, in a rearing room at a room temperature of from 19 to 25° C. and a humidity of from 30 to 70% under illumination for 12 hours (from 7 a.m. to 7 p.m.) per day. Partial urethra obstruction was induced in rats as a model of outlet obstruction mimicking BPH. Each rat was anesthetized by intraperitoneal administration of 50 mg/kg of pentobarbital sodium (Dainippon Pharmaceutical) and placed in dorsal position. The abdomen was cut in a length of about 1 cm by midline incision to expose the bladder, prostate and the urethra. The bladder neck and bladder base were peeled from the prostate, and two surgical sutures (No. 3, Natsume Seisakusho) were passed behind the urethra base. A polyethylene tube (PE-200; Becton Dickinson) was placed along the urethra, and the urethra was mildly double-ligated together with the tube. The ligation was carried out in such a manner that the urethra was not pressed by the polyethylene tube and the sutures were not loosened. The polyethylene tube was pulled out and the urethra was partially obstructed. The incised part of the abdomen was sutured with the surgical suture. Five to seven days after the partial urethra constriction operation, the rats subjected to partial urethra obstruction and those subjected to sham-operation were put in metabolism cages (KN-649, Natsume Seisakusho). For acclimatization, rats were reared for 1 day with free drinking and feeding, and the urination test was started on the next day. Using an electronic force balance (HF-200; A and D), the amount of urination by rats was continuously measured as weight, and -recorded on a thermal array recorder (RTA-1200; Nihon Kohden) via a direct current amplifier (AD-641G; Nihon Kohden). The light period (9 to 18 o'clock) under illumination and the dark period (19 to 4 o'clock) under lights off were used as the data collecting periods, and the number of micturition and the urinary volume during these periods were measured to calculate urinary frequency (frequency of micturition per 9 hours), voided volume per micturition and total urine volume as the measuring parameters. In this case, the voided volume per micturition was calculated by dividing the total urine volume per 9 hours by the urinary frequency per 9 hours. Compound 1 or a solvent (0.5 w/v % aqueous methyl cellulose 400 cP (average viscosity: 400 centipoises) solution) was administered twice on the next day between 8 to 9 o'clock and 18 to 19 o'clock, and the number of micturition and urine volume during 9 to 18 o'clock and 19 to 4 o'clock were measured to obtain measured values similarly to the case of the previous day. In the sham-operation group, the urinary frequency, voided volume per micturition and the total urine volume on the first day of the urination test were compared with those in the urethra obstruction group. The urinary frequency, voided volume per micturition and the total urine volume in each group were calculated as average ±standard error.

[3] = Dark period (active period), after administration
[4] = Dark period (active period), before administration (baseline of the Compound 1 group)
[5] = Light period (inactive period), after administration
[6] = Light period (inactive period), before administration (baseline of the Compound 1 group)
[7] = rats with partial urethra obstruction

With `C[C@](O)(C(=O)Nc1cccc2c1C(=O)c1sccc1CS2(=O)=O)C(F)(F)F` [Compound 1, (S)-(+)-N-(5,5-dioxido-10-oxo-4,10-dihydrothieno[3,2-c][1]benzothiepin-9-yl)-3,3,3-trifluoro-2-hydroxy-2-methylpropanamide] the “Delayed rectifier HP: −40 mV, normalized to control” value [1] was 1.10 ± 0.01, the Total urine volume [2, 3] was 4.83 ± 0.83 mL/9 h and the Urinary frequency [2, 3] was 6.7 ± 1.2 micturitions/9 h. The “Voided volume per micturition” value [2, 3] was 0.771 ± 0.160 mL, the Total urine volume [2, 4] was 3.57 ± 0.57 mL/9 h and the Urinary frequency [2, 4] was 10.0 ± 1.3 micturitions/9 h. The “Voided volume per micturition” value [2, 4] was 0.362 ± 0.038 mL, the Total urine volume [2, 5] was 4.76 ± 0.78 mL/9 h and the Urinary frequency [2, 5] was 5.3 ± 0.4 micturitions/9 h. The “Voided volume per micturition” value [2, 5] was 0.899 ± 0.127 mL, the Total urine volume [2, 6] was 4.80 ± 0.31 mL/9 h and the Urinary frequency [2, 6] was 8.7 ± 0.8 micturitions/9 h. For the same compound, the “Voided volume per micturition” value [2, 6] was 0.577 ± 0.064 mL, the “Effect on urinary frequency (in words)” value [2, 7] was “significantly reduced urinary frequency” and the “Effect on voided volume per micturition (in words)” value [2, 7] was “tended to increase voided volume per micturition”.
